Measured values as given in PMC4792161, “A novel pyrazole derivative protects from ovariectomy-induced osteoporosis through the inhibition of NADPH oxidase” (Scientific Reports, 2016).

Key:
glucose oxidase = glucose oxidase (Aspergillus niger, UniProt P13006); assay: Glucose oxidase assay (lucigenin); format: biochemical
Description: Glucose oxidase activity was measured by lucigenin. Reaction mixtures contained 0.75 mM glucose, 0.25 mg/ml glucose oxidase, and 0.4 mM lucigenin with the indicated inhibitor (0–20μM). Luminescence was measured over 30 min at 37 °C with luminometor (DTX800, Beckman coulter).

[1] = Pharmacokinetics after IV and oral administration to rats; format: in vivo
Description: Supplementary Table S1. Pharmacokinetic parameters of Ewha-89403 following IV and oral administration at the doses of 1 mg/kg and 10 mg/kg, respectively, to rats (n=4-5) PK Parameters IV Injection Oral Administration
Absolute Bioavailability (BA) = 4.3 %
Supplementary Table S2. Pharmacokinetic parameters of Ewha-18278 following IV and oral administration at the doses of 2 mg/kg and 20 mg/kg, respectively, to rats (n=5-6) […]
Absolute Bioavailability (BA) = 63.8 %

human Nox2 = target: T1, human Nox2 (Homo sapiens, UniProt P04839); assay: Nox inhibitor screening, Drosophila membranes over-expressing human Nox2, ROS chemiluminescence; format: biochemical; settings: hNox2 Drosophila membranes
T1 construct: made in house; host or cells: transgenic Drosophila (Duox knockdown, Da-GAL4 driven UAS-hNOX2); membrane-enriched fly homogenate
T1 sequence (P04839 2-570 limits assumed): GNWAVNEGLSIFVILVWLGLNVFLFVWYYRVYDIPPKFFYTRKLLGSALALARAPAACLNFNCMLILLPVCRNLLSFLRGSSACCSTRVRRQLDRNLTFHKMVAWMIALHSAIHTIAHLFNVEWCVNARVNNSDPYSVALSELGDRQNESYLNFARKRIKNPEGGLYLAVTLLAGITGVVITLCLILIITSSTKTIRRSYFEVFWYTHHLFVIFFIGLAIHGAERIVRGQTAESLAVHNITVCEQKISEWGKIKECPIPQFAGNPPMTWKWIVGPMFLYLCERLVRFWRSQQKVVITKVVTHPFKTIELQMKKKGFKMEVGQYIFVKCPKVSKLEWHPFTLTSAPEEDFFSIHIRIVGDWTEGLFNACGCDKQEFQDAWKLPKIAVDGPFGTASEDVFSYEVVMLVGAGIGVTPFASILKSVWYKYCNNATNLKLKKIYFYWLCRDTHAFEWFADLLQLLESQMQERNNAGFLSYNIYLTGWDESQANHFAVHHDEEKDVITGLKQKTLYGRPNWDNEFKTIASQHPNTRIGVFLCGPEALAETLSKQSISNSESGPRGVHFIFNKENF
Description: (§1) Purified Drosophila membranes expressing human Nox1, Nox2, or Nox4 were used to monitor ROS production by determining the oxidation of lucigenin, evident as chemiluminescence, in the absence or presence of chemical compound[18].
(§2) Drosophila membranes specifically overexpressing hNox1, hNox2, and hNox4 were subjected into ROS measurement with Diogene.
(§3) The genotypes used were human Nox1 (UAS-hNOX1/UAS-DUOX-RNAi; Da-GAL4/+), Nox2 (UAS-hNOX2/UAS-DUOX-RNAi; Da-GAL4/+) and Nox4 (UAS-hNOX4/UAS-DUOX-RNAi; Da-GAL4/+). Transgenic flies were homogenated with ice-cold PBS containing protease inhibitors and membrane-enriched human Nox1, 2, or 4 were harvested. Membranes containing human Nox1, 2, or 4 served to monitor ROS production by lucigenin chemiluminescence in the absence or presence of chemical compound[18].

xanthine oxidase = xanthine oxidase (Bos taurus, UniProt P80457); assay: Xanthine oxidase assay (lucigenin); format: biochemical
Sequence of xanthine oxidase (P80457 2-1332): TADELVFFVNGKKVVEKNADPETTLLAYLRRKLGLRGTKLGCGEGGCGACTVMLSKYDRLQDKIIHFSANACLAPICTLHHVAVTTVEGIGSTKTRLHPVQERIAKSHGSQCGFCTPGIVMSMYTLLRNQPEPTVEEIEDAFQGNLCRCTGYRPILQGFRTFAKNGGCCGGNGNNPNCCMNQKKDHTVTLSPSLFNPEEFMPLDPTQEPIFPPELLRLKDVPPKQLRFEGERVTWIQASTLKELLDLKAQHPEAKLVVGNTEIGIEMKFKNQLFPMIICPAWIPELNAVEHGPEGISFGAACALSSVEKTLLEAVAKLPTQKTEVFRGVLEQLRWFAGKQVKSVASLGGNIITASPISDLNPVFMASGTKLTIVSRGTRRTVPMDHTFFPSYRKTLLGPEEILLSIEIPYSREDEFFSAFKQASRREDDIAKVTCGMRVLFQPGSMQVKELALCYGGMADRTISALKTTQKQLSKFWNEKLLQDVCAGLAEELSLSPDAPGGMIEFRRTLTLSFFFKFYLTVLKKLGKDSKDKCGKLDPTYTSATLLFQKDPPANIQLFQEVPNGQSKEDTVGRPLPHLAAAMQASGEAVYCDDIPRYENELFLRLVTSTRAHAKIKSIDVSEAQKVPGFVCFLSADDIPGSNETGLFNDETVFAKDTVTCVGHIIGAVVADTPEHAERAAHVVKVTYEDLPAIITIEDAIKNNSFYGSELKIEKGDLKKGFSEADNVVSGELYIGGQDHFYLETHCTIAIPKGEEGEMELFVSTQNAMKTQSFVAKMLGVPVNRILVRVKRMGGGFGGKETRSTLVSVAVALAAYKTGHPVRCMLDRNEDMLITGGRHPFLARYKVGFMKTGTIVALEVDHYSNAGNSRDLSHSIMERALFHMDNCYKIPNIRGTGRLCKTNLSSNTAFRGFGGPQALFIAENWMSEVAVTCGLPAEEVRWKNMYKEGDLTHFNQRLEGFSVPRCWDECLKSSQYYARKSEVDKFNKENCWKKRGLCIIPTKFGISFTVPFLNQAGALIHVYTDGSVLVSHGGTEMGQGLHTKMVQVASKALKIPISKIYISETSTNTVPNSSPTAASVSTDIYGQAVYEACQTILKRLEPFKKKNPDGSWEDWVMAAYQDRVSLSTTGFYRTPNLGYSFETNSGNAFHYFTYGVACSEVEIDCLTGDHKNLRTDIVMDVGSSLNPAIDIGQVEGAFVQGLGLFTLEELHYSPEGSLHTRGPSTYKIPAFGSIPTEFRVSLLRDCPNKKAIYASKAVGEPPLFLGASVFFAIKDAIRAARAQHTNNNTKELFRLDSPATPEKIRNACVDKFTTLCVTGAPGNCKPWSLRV
Description: Xanthine oxidase activity was measured by lucigenin. Reaction mixtures contained 0.1 mU xanthine oxidase, 0.25 mM Xanthine, and 0.4 mM lucigenin with the indicated inhibitor (0–20 μM). Luminescence measured over 30 min at 37 °C with luminometor (DTX800, Beckman coulter).

human Nox1 = target: T2, human Nox1 (Homo sapiens, UniProt Q9Y5S8); assay: Nox inhibitor screening, Drosophila membranes over-expressing human Nox1, ROS chemiluminescence; format: biochemical; settings: hNox1 Drosophila membranes
T2 construct: made in house; host or cells: transgenic Drosophila (Duox knockdown, Da-GAL4 driven UAS-hNOX1); membrane-enriched fly homogenate
T2 sequence (Q9Y5S8 1-564): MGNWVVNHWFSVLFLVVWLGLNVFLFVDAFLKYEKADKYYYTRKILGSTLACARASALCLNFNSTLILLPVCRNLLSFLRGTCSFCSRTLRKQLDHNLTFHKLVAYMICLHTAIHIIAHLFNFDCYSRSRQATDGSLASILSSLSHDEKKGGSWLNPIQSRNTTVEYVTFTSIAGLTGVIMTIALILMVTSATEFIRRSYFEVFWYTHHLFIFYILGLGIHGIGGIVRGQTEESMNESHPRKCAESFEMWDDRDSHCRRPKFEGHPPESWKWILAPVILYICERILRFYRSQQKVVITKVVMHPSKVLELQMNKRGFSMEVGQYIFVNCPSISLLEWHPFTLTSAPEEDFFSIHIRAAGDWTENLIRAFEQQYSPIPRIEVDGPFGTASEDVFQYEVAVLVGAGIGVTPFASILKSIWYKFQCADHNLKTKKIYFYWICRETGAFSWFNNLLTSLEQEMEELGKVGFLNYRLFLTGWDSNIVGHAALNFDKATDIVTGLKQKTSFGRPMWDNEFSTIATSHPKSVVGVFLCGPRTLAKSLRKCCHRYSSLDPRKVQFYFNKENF
Description: as §1, §2, §3

human Nox4 = target: T3, human Nox4 (Homo sapiens, UniProt Q9NPH5); assay: Nox inhibitor screening, Drosophila membranes over-expressing human Nox4, ROS chemiluminescence; format: biochemical; settings: hNox4 Drosophila membranes
T3 construct: made in house; host or cells: transgenic Drosophila (Duox knockdown, Da-GAL4 driven UAS-hNOX4); membrane-enriched fly homogenate
T3 sequence (Q9NPH5 1-578): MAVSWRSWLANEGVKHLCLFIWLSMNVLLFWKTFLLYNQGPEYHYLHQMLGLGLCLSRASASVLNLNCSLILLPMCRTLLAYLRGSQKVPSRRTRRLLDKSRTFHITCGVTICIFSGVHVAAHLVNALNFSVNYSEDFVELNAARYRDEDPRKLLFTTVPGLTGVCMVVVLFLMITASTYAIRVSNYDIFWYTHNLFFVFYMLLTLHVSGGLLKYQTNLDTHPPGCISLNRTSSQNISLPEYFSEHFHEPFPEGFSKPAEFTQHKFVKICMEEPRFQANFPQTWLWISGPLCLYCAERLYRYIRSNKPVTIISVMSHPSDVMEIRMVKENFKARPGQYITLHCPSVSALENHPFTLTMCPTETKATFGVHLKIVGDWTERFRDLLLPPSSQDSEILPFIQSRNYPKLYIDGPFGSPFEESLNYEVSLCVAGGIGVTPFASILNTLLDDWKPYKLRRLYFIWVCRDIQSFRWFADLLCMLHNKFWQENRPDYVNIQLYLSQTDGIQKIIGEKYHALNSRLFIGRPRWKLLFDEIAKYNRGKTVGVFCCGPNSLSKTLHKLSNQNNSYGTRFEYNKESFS
Description: as §1, §2, §3

Sequence of glucose oxidase (P13006 17-605, species assumed): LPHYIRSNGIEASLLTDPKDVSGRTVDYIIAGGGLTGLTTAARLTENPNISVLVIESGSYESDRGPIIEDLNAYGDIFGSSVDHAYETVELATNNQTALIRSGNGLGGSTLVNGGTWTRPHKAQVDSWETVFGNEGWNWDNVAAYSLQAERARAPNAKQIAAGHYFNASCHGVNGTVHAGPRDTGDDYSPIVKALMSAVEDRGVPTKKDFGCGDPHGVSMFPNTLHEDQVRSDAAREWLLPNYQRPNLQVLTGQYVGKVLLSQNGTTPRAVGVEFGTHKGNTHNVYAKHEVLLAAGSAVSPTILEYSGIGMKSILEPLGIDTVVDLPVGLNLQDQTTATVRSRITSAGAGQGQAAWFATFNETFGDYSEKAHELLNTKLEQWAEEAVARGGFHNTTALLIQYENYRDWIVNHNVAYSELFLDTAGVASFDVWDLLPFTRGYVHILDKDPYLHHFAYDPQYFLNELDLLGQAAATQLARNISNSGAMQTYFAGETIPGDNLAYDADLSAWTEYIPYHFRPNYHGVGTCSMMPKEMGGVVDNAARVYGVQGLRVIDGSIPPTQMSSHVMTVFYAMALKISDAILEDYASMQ

## Oc1cc(-c2ccccc2)nn1-c1ccccn1 [Ewha-89403, 3-phenyl-1-(pyridin-2-yl)-1H-5-hydroxypyrazole]
Glucose oxidase
  inhibitory activity on glucose oxidase: no inhibitory activities
[1]; IV 1 mg/kg
  Clt: 1277 ± 162.1 mL/h
[1]; rat, in vivo, IV 1 mg/kg
  AUC(0-inf): 418 ± 56 ng·h/mL
  AUC(0-t): 343 ± 45 ng·h/mL
  C0: 2520 ± 837 ng/mL
  Vd: 2.64 ± 1.41 L
  half-life: 1.43 ± 0.723 h
[1]; rat, in vivo, IV 1 mg/kg and oral 10 mg/kg, read-out: Absolute Bioavailability (BA)
  bioavailability: 4.3%
[1]; rat, in vivo, oral 10 mg/kg
  AUC(0-inf): 302 ± 133 ng·h/mL
  AUC(0-t): 149 ± 39 ng·h/mL
  Cmax: 194 ± 54 ng/mL
  Tmax: 6.12 ± 2.34 min
  half-life: 3.3 ± 2.08 h
Human Nox2
  Ki: 2570 nM
Xanthine oxidase
  inhibitory activity on xanthine oxidase: no inhibitory activities
Human Nox1
  Ki: 1450 nM
Human Nox4
  Ki: 3120 nM
